# Test results from the supplement of paper PMC10307832.
# Assays:
# Test in all cases: relative viability (nuclei count vs DMSO), 5 days (fraction); higher = more cells survive
# NCI-H460 = tested on: NCI-H460
# Method in brief: (§1)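 Lung cancer cell lines, seeded in 1536-well plates, were treated the following day by pin tool with a single drug or with five library-drug doses (not always all listed) in √10 steps on top of a fixed anchor-drug dose. Cells were fixed and nuclei stained in one step after 5 days, and nuclei were counted. Relative viability is the nuclei count for treated wells divided by that for vehicle wells, reported as medians of duplicate plates.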
# NCI-H358 = tested on: NCI-H358
# Method in brief: as §1
# NCI-H1792 = tested on: NCI-H1792
# Method in brief: as §1
# NCI-H1944 = tested on: NCI-H1944
# Method in brief: as §1
# LU99A = tested on: LU99A
# Method in brief: as §1
# NCI-H1975 = tested on: NCI-H1975
# Method in brief: as §1
# UMC-11 = tested on: UMC-11
# Method in brief: as §1
# NCI-H1755 = tested on: NCI-H1755
# Method in brief: as §1
# HOP-62 = tested on: HOP-62
# Method in brief: as §1
# NCI-H2342 = tested on: NCI-H2342
# Method in brief: as §1
# LCLC-97TM1 = tested on: LCLC-97TM1
# Method in brief: as §1
# A-427 = tested on: A-427
# Method in brief: as §1
# NCI-H1793 = tested on: NCI-H1793
# Method in brief: as §1
# NCI-H2170 = tested on: NCI-H2170
# Method in brief: as §1
# NCI-H1915 = tested on: NCI-H1915
# Method in brief: as §1
# SW 900 = tested on: SW 900
# Method in brief: as §1
# LXF-289 = tested on: LXF-289
# Method in brief: as §1
# COR-L 105 = tested on: COR-L 105
# Method in brief: as §1
# LC-2-ad = tested on: LC-2-ad
# Method in brief: as §1
# SK-LU-1 = tested on: SK-LU-1
# Method in brief: as §1
# EPLC-272H = tested on: EPLC-272H
# Method in brief: as §1
# NCI-H2085 = tested on: NCI-H2085
# Method in brief: as §1
smiles,measurement,setting,value
COc1cc(N2CCC(C(N)=O)CC2)ccc1Nc1nc(N)c(Cl)c(Nc2ccccc2S(=O)(=O)C(C)C)n1 [HG-5-88-01] + CCNC(=O)c1noc(-c2cc(C(C)C)c(O)cc2O)c1-c1ccc(CN2CCOCC2)cc1 [Luminespib] (partner 0.01 µM),relative viability,NCI-H460; first compound 0.04 µM,0.0373
same,relative viability,NCI-H460; first compound 0.1265 µM,0.0308
same,relative viability,NCI-H460; first compound 0.4 µM,0.0242
same,relative viability,NCI-H460; first compound 1.265 µM,0.0363
same,relative viability,NCI-H460; first compound 4 µM,0.0375
same,relative viability,NCI-H358; first compound 0.04 µM,0.335
same,relative viability,NCI-H358; first compound 0.1265 µM,0.256
same,relative viability,NCI-H358; first compound 0.4 µM,0.422
same,relative viability,NCI-H358; first compound 1.265 µM,0.099
same,relative viability,NCI-H358; first compound 4 µM,0.148
same,relative viability,NCI-H1792; first compound 0.04 µM,0.442
same,relative viability,NCI-H1792; first compound 0.1265 µM,0.609
same,relative viability,NCI-H1792; first compound 0.4 µM,0.472
same,relative viability,NCI-H1792; first compound 1.265 µM,0.325
same,relative viability,NCI-H1792; first compound 4 µM,0.552
same,relative viability,NCI-H1944; first compound 0.04 µM,0.808
same,relative viability,NCI-H1944; first compound 0.1265 µM,0.821
same,relative viability,NCI-H1944; first compound 0.4 µM,0.759
same,relative viability,NCI-H1944; first compound 1.265 µM,0.673
same,relative viability,NCI-H1944; first compound 4 µM,0.729
same,relative viability,LU99A; first compound 0.04 µM,0.214
same,relative viability,LU99A; first compound 0.1265 µM,0.217
same,relative viability,LU99A; first compound 0.4 µM,0.288
same,relative viability,LU99A; first compound 1.265 µM,0.275
same,relative viability,LU99A; first compound 4 µM,0.252
same,relative viability,NCI-H1975; first compound 0.04 µM,0.34
same,relative viability,NCI-H1975; first compound 0.1265 µM,0.215
same,relative viability,NCI-H1975; first compound 0.4 µM,0.35
same,relative viability,NCI-H1975; first compound 1.265 µM,0.171
same,relative viability,NCI-H1975; first compound 4 µM,0.174
same,relative viability,UMC-11; first compound 0.04 µM,0.914
same,relative viability,UMC-11; first compound 0.1265 µM,1.08
same,relative viability,UMC-11; first compound 1.265 µM,0.983
same,relative viability,UMC-11; first compound 4 µM,1.12
same,relative viability,NCI-H1755; first compound 0.04 µM,0.401
same,relative viability,NCI-H1755; first compound 0.1265 µM,0.32
same,relative viability,NCI-H1755; first compound 0.4 µM,0.427
same,relative viability,NCI-H1755; first compound 1.265 µM,0.385
same,relative viability,NCI-H1755; first compound 4 µM,0.599
same,relative viability,HOP-62; first compound 0.04 µM,0.889
same,relative viability,HOP-62; first compound 0.1265 µM,0.932
same,relative viability,HOP-62; first compound 0.4 µM,0.878
same,relative viability,HOP-62; first compound 1.265 µM,0.964
same,relative viability,HOP-62; first compound 4 µM,1.01
same,relative viability,NCI-H2342; first compound 0.04 µM,0.672
same,relative viability,NCI-H2342; first compound 0.1265 µM,0.739
same,relative viability,NCI-H2342; first compound 0.4 µM,0.688
same,relative viability,NCI-H2342; first compound 1.265 µM,0.701
same,relative viability,NCI-H2342; first compound 4 µM,0.845
same,relative viability,LCLC-97TM1; first compound 0.04 µM,0.864
same,relative viability,LCLC-97TM1; first compound 0.1265 µM,0.647
same,relative viability,LCLC-97TM1; first compound 0.4 µM,0.713
same,relative viability,LCLC-97TM1; first compound 1.265 µM,0.511
same,relative viability,LCLC-97TM1; first compound 4 µM,0.301
same,relative viability,A-427; first compound 0.04 µM,1.13
same,relative viability,A-427; first compound 0.1265 µM,0.916
same,relative viability,A-427; first compound 0.4 µM,0.901
same,relative viability,A-427; first compound 1.265 µM,0.769
same,relative viability,A-427; first compound 4 µM,0.754
same,relative viability,NCI-H1793; first compound 0.1265 µM,0.168
same,relative viability,NCI-H1793; first compound 0.4 µM,0.198
same,relative viability,NCI-H1793; first compound 4 µM,0.272
same,relative viability,NCI-H2170; first compound 0.04 µM,0.749
same,relative viability,NCI-H2170; first compound 0.1265 µM,0.746
same,relative viability,NCI-H2170; first compound 0.4 µM,0.666
same,relative viability,NCI-H2170; first compound 1.265 µM,0.511
same,relative viability,NCI-H2170; first compound 4 µM,0.784
same,relative viability,NCI-H1915; first compound 0.04 µM,0.774
same,relative viability,NCI-H1915; first compound 0.1265 µM,0.755
same,relative viability,NCI-H1915; first compound 0.4 µM,0.792
same,relative viability,NCI-H1915; first compound 1.265 µM,1.01
same,relative viability,NCI-H1915; first compound 4 µM,0.786
same,relative viability,SW 900; first compound 0.04 µM,0.158
same,relative viability,SW 900; first compound 0.1265 µM,0.207
same,relative viability,SW 900; first compound 0.4 µM,0.185
same,relative viability,SW 900; first compound 1.265 µM,0.157
same,relative viability,SW 900; first compound 4 µM,0.186
same,relative viability,LXF-289; first compound 0.04 µM,0.703
same,relative viability,LXF-289; first compound 0.1265 µM,0.733
same,relative viability,LXF-289; first compound 0.4 µM,0.698
same,relative viability,LXF-289; first compound 1.265 µM,0.721
same,relative viability,LXF-289; first compound 4 µM,0.897
same,relative viability,COR-L 105; first compound 0.04 µM,0.664
same,relative viability,COR-L 105; first compound 0.1265 µM,1.02
same,relative viability,COR-L 105; first compound 0.4 µM,0.851
same,relative viability,COR-L 105; first compound 1.265 µM,0.903
same,relative viability,COR-L 105; first compound 4 µM,0.702
same,relative viability,LC-2-ad; first compound 0.04 µM,1.05
same,relative viability,LC-2-ad; first compound 0.1265 µM,1.17
same,relative viability,LC-2-ad; first compound 0.4 µM,1.13
same,relative viability,LC-2-ad; first compound 1.265 µM,0.812
same,relative viability,LC-2-ad; first compound 4 µM,1.06
same,relative viability,SK-LU-1; first compound 0.04 µM,0.209
same,relative viability,SK-LU-1; first compound 0.1265 µM,0.2
same,relative viability,SK-LU-1; first compound 0.4 µM,0.196
same,relative viability,SK-LU-1; first compound 1.265 µM,0.229
same,relative viability,SK-LU-1; first compound 4 µM,0.199
same,relative viability,EPLC-272H; first compound 0.04 µM,0.384
same,relative viability,EPLC-272H; first compound 0.1265 µM,0.269
same,relative viability,EPLC-272H; first compound 0.4 µM,0.347
same,relative viability,EPLC-272H; first compound 1.265 µM,0.181
same,relative viability,EPLC-272H; first compound 4 µM,0.204
same,relative viability,NCI-H2085; first compound 0.04 µM,0.405
same,relative viability,NCI-H2085; first compound 0.1265 µM,0.453
same,relative viability,NCI-H2085; first compound 0.4 µM,0.407
same,relative viability,NCI-H2085; first compound 1.265 µM,0.434
same,relative viability,NCI-H2085; first compound 4 µM,0.464
